This assay concerns the target Helios (Homo sapiens, UniProt Q96SW2+Q9UKS7). Description: Helios Cellular Degradation Assay (Jurkat cells). Also noted: fluorescently labelled antibodies against Helios, Ikaros and Aiolos; endogenous in cells; host or cells: Jurkat cells. It counts as cell-based. The note with it: incubated 72 h, Helios-PE antibody staining, flow cytometry, read-out: Helios Jurkat IC50. The procedure: Jurkat cells were plated at 80,000 cells/well in 40 μL RPMI+10% FBS in a 384 well cell culture plate prior to using acoustic dispensing technology for adding compound of interest. Cell cultures were incubated for 72 h at 37° C. and 5% CO2. In order to facilitate analysis, cell cultures were spun down at 200 rpm for 5 min and the supernatant was discarded. After shaking the plate to dislodge the cell pellet, cells were resuspended in 50 μL of Fixation Buffer (eBioScience FoxP3 buffer set 00-5523-00) for 60 min at room temperature. After centrifuging and discarding the supernatant, cells were permeabilized with 50 μL of Permeabilization buffer (eBioScience FoxP3 buffer set 00-5523-00) for 10 min at room temperature. Following permeabilization, cells were spun down and the supernatant was replaced with 20 μL fluorescently labelled antibodies against Helios, Ikaros and Aiolos or corresponding Isotype controls in 1× Permeabilization buffer (Ikaros-Alexa488 [Biolegend, Cat #368408, 1:50], Helios-PE [CST, Cat #29360, 1:50], Aiolos-Alexa647 [Biolegend, Cat #371106Biolegend, 1:25]) and staining reactions were incubated for 1 h at room temperature; protected from light. […] Stained cells were resuspended in 25 μL of flow cytometry staining buffer (PBS+0.2% BSA) and analyzed using an Intellicyt Ique Plus flow cytometer.
For orientation: In flow cytometry, cells or beads pass a laser one at a time.

Among the data in patent US20250346574A1, “PYRIDINYL SUBSTITUTED OXOISOINDOLINE COMPOUNDS FOR THE TREATMENT OF CANCER” (Bristol-Myers Squibb Company, priority 2021, published 2025) are DC50 values, retold here.

Chain of Helios (Q9UKS7 whole entry): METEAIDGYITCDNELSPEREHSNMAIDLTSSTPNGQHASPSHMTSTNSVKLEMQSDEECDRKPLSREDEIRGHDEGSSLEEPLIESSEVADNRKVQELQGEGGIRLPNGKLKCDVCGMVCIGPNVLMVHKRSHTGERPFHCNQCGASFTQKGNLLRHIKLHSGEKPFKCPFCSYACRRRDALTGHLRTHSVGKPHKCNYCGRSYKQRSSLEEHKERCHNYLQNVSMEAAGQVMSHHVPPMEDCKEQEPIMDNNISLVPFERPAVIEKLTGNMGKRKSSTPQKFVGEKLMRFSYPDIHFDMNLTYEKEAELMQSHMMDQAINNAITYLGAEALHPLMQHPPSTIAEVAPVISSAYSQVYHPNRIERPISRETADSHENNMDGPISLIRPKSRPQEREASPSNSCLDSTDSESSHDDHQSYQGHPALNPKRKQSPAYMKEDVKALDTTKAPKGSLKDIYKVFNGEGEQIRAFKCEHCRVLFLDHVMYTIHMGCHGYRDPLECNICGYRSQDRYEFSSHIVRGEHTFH
Chain of Helios (Q96SW2 whole entry): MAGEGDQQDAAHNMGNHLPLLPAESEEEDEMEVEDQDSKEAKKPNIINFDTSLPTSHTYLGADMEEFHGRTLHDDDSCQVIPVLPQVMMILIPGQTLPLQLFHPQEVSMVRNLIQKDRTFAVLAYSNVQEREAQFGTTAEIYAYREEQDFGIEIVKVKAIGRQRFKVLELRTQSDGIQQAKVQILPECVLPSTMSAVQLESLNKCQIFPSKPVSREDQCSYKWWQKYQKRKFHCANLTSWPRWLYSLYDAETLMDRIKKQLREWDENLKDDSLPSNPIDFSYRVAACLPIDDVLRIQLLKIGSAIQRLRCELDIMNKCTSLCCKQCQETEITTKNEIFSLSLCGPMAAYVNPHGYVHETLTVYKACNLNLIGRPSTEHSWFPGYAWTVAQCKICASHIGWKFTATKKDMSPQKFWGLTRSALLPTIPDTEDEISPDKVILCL
Chain of Helios (Q16531 whole entry partner): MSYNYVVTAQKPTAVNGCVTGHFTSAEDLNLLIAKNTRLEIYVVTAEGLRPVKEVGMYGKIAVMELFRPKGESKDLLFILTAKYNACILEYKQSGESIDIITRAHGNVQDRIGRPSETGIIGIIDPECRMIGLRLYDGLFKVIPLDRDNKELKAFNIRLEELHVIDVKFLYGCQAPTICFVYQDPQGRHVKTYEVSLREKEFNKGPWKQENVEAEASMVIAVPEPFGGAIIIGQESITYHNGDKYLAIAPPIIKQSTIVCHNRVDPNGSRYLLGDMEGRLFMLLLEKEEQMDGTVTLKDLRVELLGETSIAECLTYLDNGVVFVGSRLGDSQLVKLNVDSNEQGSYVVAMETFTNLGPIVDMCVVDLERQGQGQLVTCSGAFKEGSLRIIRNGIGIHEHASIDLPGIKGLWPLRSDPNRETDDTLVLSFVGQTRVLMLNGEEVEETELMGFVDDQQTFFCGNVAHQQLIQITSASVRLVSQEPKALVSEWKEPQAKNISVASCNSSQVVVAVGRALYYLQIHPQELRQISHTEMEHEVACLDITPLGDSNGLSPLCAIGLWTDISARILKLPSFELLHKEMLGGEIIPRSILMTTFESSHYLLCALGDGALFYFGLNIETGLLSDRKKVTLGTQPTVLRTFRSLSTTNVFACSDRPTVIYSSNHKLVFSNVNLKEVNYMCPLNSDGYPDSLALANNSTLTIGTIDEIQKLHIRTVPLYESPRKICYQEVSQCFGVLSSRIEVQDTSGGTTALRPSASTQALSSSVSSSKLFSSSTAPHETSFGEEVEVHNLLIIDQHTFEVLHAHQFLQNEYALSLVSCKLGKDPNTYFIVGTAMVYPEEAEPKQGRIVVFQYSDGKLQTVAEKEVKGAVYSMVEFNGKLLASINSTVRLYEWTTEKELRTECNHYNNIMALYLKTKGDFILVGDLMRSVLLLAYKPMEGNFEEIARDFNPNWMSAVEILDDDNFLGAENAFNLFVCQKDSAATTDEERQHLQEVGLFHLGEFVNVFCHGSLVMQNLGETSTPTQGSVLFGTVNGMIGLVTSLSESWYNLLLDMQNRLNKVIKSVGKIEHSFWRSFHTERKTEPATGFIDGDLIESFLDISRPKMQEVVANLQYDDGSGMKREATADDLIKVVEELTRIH

With `NC(=O)C1CCN1Cc1ccnc(-c2ccc3c(c2)CN(C2CCC(=O)NC2=O)C3=O)c1` (stereo not shown) [Example 79, 1-((2-(2-(2,6-dioxopiperidin-3-yl)-1-oxoisoindolin-5-yl)pyridin-4-yl)methyl) azetidine-2-carboxamide], the DC50 turned out to be 736 nM.
